# Legend:
# c-kit [1] = assay: Western blot analysis of c-Kit in Kasumi-1 cells; type: cell-based
# Description: The results of the FACS analysis were confirmed with Western blot analysis (see FIG. 2). […] In contrast, 17-AAG had no effect of c-Kit protein levels at either 100 nM or 400 nM.
# c-kit [2] = assay: FACS-based c-kit degradation assay in Kasumi-1 cells; type: cell-based; conditions: about 18 h
# Description: Leukemia cell line, Kasumi-1, was used for testing c-kit degradation induced by Hsp90 inhibitors of the invention. The cells (3×10^5 per well) were treated with 17AAG (0.5 μM) or Compound 11 (0.05 μM or 0.5 μM) for about 18 h. The cells were collected and centrifuged (SORVALL RT 6000D) at 1200 rpm for 5 min. The supernatants were discarded, and the cells were washed one time with 1×PBS. After centrifugation the cells were stained with FITC conjugated c-kit antibody (MBL International, Cat# K0105-4) in […] 1×PBS at 4° C. for 1 h. The samples were read and analyzed with FACSCalibur flow cytometer (Becton Dicknson).
# Her2 = assay: Degradation of Her2 in BT-474 cells (Method 1, Western blot); type: cell-based, human; conditions: 0.5 μM, overnight
# Description: Human high-Her2 breast carcinoma BT474 (HTB-20), SK-BR-3 (HTB-30) and MCF-7 breast carcinoma (HTB-22) from American Type Culture Collection, VA, USA were grown in Dulbecco's modified Eagle's medium with 4 mM L-glutamine and antibiotics (100 IU/ml penicillin and 100 ug/ml streptomycine; GibcoBRL). To obtain exponential cell growth, cells were trypsinized, counted and seeded at a cell density of 0.5×10^6 cells /ml regularly, every 3 days. All experiments were performed on day 1 after cell passage.
# BT-474 cells are treated with 0.5 μM, 2 μM, or 5 μM of 17AAG (a positive control) or 0.5 μM, 2 μAM, or 5 μM of a compound of the invention overnight in DMEM medium. After treatment, each cytoplasmic sample is prepared from 1×10^6 cells by incubation of cell lysis buffer (#9803, cell Signaling Technology) on ice for 10 minutes. The resulting supernatant used as the cytosol fractions is dissolved with sample buffer for SDS-PAGE and run on a SDS-PAGE gel, blotted onto a nitrocellulose membrane by using semi-dry transfer. Non-specific binding to nitrocellulose is blocked with 5% skim milk in TBS with 0.5% Tween at room temperature for 1 hour, then probed with anti-Her2/ErB2 mAb (rabbit IgG, #2242, Cell Signaling) and anti-Tubulin (T9026, Sigmna) as housekeeping control protein. […]
SMILES,Degradation of c-Kit (Western blot) (c-kit [1]; 100 nM),Degradation of c-Kit (Western blot) (c-kit [1]; 400 nM),c-kit degradation (FACS) (c-kit [2]; 0.05 μM),c-kit degradation (FACS) (c-kit [2]; 0.5 μM),Degradation of Her2 (Her2)
"CCN(C)c1cc(-n2c(S)nnc2-c2cc(C(C)C)c(O)cc2O)ccc1OC [Compound 12, 4-(4-(3-(N-methyl-N-ethylamino)-4-methoxy-phenyl)-5-mercapto-4H-1,2,4-triazol-3-yl)-6-isopropylbenzene-1,3-diol]",induced the degradation of c-Kit,induced the degradation of c-Kit,,,
"CCCN(C)c1cc(-n2c(S)nnc2-c2cc(C(C)C)c(O)cc2O)ccc1OC [Compound 11, 4-(4-(3-(N-methyl-N-propylamino)-4-methoxyphenyl)-5-mercapto-4H-1,2,4-triazol-3-yl)-6-isopropylbenzene-1,3-diol]",induced the degradation of c-Kit,induced the degradation of c-Kit,induced c-kit degradation,induced c-kit degradation,
"C=CCNC1=C2C[C@@H](C)C[C@H](OC)[C@H](O)[C@@H](C)/C=C(\C)[C@H](OC(N)=O)[C@@H](OC)/C=C\C=C(/C)C(=O)NC(=CC1=O)C2=O [Compound 17AAG, reference compound]",no effect,no effect,,could not induce c-kit degradation,partial degradation of Her2
